Residues, ends and D or L forms follow the SMILES beside them.
How the values were obtained:
[1] = target: T1, CD44v6 from MDA-MB231 cell lysates (Homo sapiens, UniProt P16070); assay: Pull-down assay with biotin-labeled peptides; type: binding; conditions: biotinylated peptide 25 µM, streptavidin beads, immunoblotting
T1 sequence (P16070 386-428 limits assumed): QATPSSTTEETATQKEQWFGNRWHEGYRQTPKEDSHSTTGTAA
Experimental: Biotin-labeled peptides were incubated with streptavidin magnetic beads (Bioclone Inc., San Diego, CA) at room temperature for 30-60 min under gentle rotation. MDA-MB231 cells were then lysed using a cell lysis reagent (ThermoFisher Scientific) containing protease inhibitors. The lysates were incubated with the biotinylated peptide (25 µM) and streptavidin bead complexes at room temperature for 30-60 min under gentle rotation. In another set of assays, the recombinant human CD44v6 protein was used instead of the cell lysates. The complexes were pulled down and incubated with an elution buffer containing 2 mM D-biotin (Bioclone Inc.) for 5-10 min, and the eluates were collected and subjected to electrophoresis.

[2] = test system: MDA-MB231-luc cells; assay: MDA-MB231-luc experimental lung metastasis model; type: in vivo; conditions: for number of tumor nodules in the lungs, peptide in combination with crizotinib versus single treatment / survival rate, peptide in combination with crizotinib versus single treatment: peptide 14.2 mg/kg i.v. plus crizotinib 25 mg/kg oral; for numbers of metastatic tumor nodules in the lungs / weights of the isolated lungs: peptide 14.2 mg/kg i.v. thrice weekly for 3 weeks; for luminescence signals and total photon flux in the whole body: peptide 14.2 mg/kg i.v. thrice weekly for 3 weeks from 1 h after tumor cell injection; for survival rate: peptide 14.2 mg/kg i.v. thrice weekly or crizotinib 25 mg/kg oral twice weekly, 3 weeks, single treatment; for liver and kidney functional marker levels (BUN, CRE, AST, ALT): peptide alone or in combination with crizotinib, serum, n = 5/group
Experimental: A mouse model of lung metastasis of breast cancer was prepared by injecting 1 × 10^6 MDA-MB231-luc cells into 6-week-old female BALB/c nude mice via tail vein. To monitor the localization of the tumor cells in the lungs, the mice were injected intraperitoneally with D-luciferin at a dose of 150 mg/kg body weight and subjected to a whole-body bioluminescence imaging using IVIS imaging system (Perkin Elmer) after a 10-min resting period. Mice (n = 10 per group) were randomly assigned to groups based on the luminescence intensity. At 1 h after tumor cell injection, tumor-bearing mice received intravenous injections of CD44v6-binding peptides through the tail vein (14.2 mg/kg body weight, thrice weekly for 3 weeks) alone or in combination with orally administered crizotinib in 5% dimethyl sulfoxide (DMSO) (25 mg/kg of body weight, twice weekly for 3 weeks) as previously described, [29]. Metastatic tumor growth after treatments was monitored by measuring the total photon flux (number of photons/second) in the whole body using the IVIS imaging system. The body weights of mice and tumor ulceration were monitored throughout the treatment period. At the end of the treatment period, half of the mice (n = 5 per group) were used for the collection of blood, sacrificed, the lungs were harvested and weighed, and the numbers of metastatic tumor nodules in the lungs were counted. The remaining mice (n = 5 per group) were maintained until death to determine the survival rates. For the analysis of hematological parameters, 1 mL of blood was collected from each mouse and separated into 500 µL aliquots used to prepare serum and plasma. Serum was obtained by centrifuging clotted blood at 4 °C twice, followed by filtration (pore size: 0.22 µm). Plasma was obtained by centrifuging ethylenediaminetetraacetic acid-treated samples. Hematological parameters and liver and kidney function markers were measured by DGMIF (Daegu, Korea).

[3] = target: T2, recombinant human CD44v6-Fc protein (Homo sapiens, UniProt P16070); assay: SPR analysis of peptide binding affinity to CD44v6-Fc; conditions: biotin-conjugated peptide on streptavidin chip, CD44v6-Fc 0.125-2 µM, steady-state 1:1 fit, pH 7.4
T2 sequence (P16070 386-428 limits assumed): T1 sequence (P16070 386-428 limits assumed)
Experimental: The binding affinity (KD) of CD44v6-binding peptides to the CD44v6 protein was measured using an SPR instrument (Reichert Technologies, Depew, NY). A streptavidin chip was used as the immobilization substrate and exposed to biotin-labeled peptides (25 μΜ) at 5 μL/min for 50 min. The streptavidin only surface was used for the reference surface. All SPR signals were corrected by subtraction with the response of the reference surface. After washing, the chip was flowed with a solution of CD44v6-Fc or CD44-Fc protein (R&D Systems, Minneapolis, MN) in binding buffer (137 mM NaCl, 10 mM phosphate, 2.7 mM KCl pH 7.4, 62.5 µM BSA, and 0.005% Tween-20) at concentrations of 0.125, 0.25, 0.5, 1, and 2 μM at 10 μL/min for 3 min. Five concentrations (0.125, 0.25, 0.5, 1, and 2 µM) of CD44v6-Fc and CD44-Fc were used in a single-cycle dynamic SPR measurements. Resonance units were recorded and analyzed using Scrubber 2.0 software (BioLogic Software, Campbell, Australia). KD values were calculated by analyzing the steady-state binding data by fitting the curve of binding level against concentration with a 1:1 binding model (GraphPad Prism 7.0 software).

[4] = test system: c-Met and Erk phosphorylation in 4T1 cells; assay: Western blotting of HGF-induced c-Met and Erk phosphorylation, 4T1; type: cell-based, mouse; conditions: peptide pre-treatment 10 min, HGF 25 ng/mL 10 min
Experimental: To examine c-Met and Erk phosphorylation, MDA-MB231 cells were serum-starved for 24 h, pre-treated with CD44v6-binding peptides (20 µM) for 10 min, and incubated with 25 ng/mL HGF for 10 min. After the incubation, the cell lysates were subjected to Western blotting analyses using an anti-phospho-Met rabbit monoclonal antibody (clone no. D26; Cell Signaling Technology), anti-Met mouse monoclonal antibody (clone no. 25H2, 1:1000 dilution; Cell Signaling Technology), anti-phospho-Erk1/2 rabbit monoclonal antibody (clone no. 197G2; Cell Signaling Technology), and anti-ERK1 rabbit polyclonal antibody (1:1000 dilution; Santa Cruz Biotechnology). The labeled bands on immunoblots were detected using enhanced chemiluminescence reagents (ThermoFisher Scientific).
Supplementary Figure S3. NLN and NEW inhibit HGF-induced c-Met phosphorylation and cell migration and invasion in 4T1 breast tumor cells. (A) Western blotting analysis of c-Met and Erk phosphorylation in 4T1 cells pretreated or not with 5 μg/mL NLN and NEW for 10 min and treated with 25 ng/mL HGF for 10 min. (B) The quantification of c-Met and Erk […]
(1 picture or pasted object on this page, not shown here)

| Structure (SMILES) | pull-down of CD44v6 and CD44 from cell lysates [1] | pull-down of c-Met together with CD44v6 from cell lysates [1] | serum alanine transferase levels ([2]; above the normal ranges, 14.2 mg/kg i.v. thrice weekly for 3 weeks) | number of tumor nodules in the lungs, peptide in combination with crizotinib versus single treatment [2] | survival rate, peptide in combination with crizotinib versus single treatment [2] | numbers of metastatic tumor nodules in the lungs [2] | weights of the isolated lungs [2] | luminescence signals and total photon flux in the whole body [2] | survival rate [2] | liver and kidney functional marker levels (BUN, CRE, AST, ALT) [2] | Kd [3] [µM] | HGF-induced phosphorylation of c-Met and Erk, 4T1 [4] |
| --- | --- | --- | --- | --- | --- | --- | --- | --- | --- | --- | --- | --- |
| CC[C@H](C)[C@H](NC(=O)[C@@H](NC(=O)[C@H](CC(N)=O)NC(=O)[C@H](CC(C)C)NC(=O)[C@H](CC(N)=O)NC(=O)[C@@H](N)CS)[C@@H](C)O)C(=O)N[C@@H](CC(=O)O)C(=O)N[C@H](C(=O)N[C@@H](CS)C(=O)O)[C@@H](C)O [NLN] (H-CNLNTIDTC-OH; N-terminus and C-terminus assumed) | selectively pulled down CD44v6 but not CD44 | pulled down both c-Met and CD44v6 | significantly increased | more efficiently reduced | increased the survival rate | reduced | reduced | decreased | increased | within or close to the normal ranges | 0.253 ± 0.079 | inhibited |
| CC(C)C[C@H](NC(=O)[C@H](CCC(N)=O)NC(=O)[C@H](Cc1c[nH]c2ccccc12)NC(=O)[C@H](CCC(=O)O)NC(=O)[C@H](CC(N)=O)NC(=O)[C@@H](N)CS)C(=O)N[C@@H](CCCCN)C(=O)N[C@@H](CO)C(=O)N[C@@H](CS)C(=O)O [NEW] (H-CNEWQLKSC-OH; N-terminus and C-terminus assumed) | selectively pulled down CD44v6 but not CD44 | pulled down only CD44v6 | – | more efficiently reduced | increased the survival rate | reduced | reduced | decreased | increased | within or close to the normal ranges | 0.085 ± 0.018 | inhibited |

Reference: paper PMC7738880, “Identification of novel CD44v6-binding peptides that block CD44v6 and deliver a pro-apoptotic peptide to tumors to inhibit tumor growth and metastasis in mice” (Theranostics, 2021)
